Measurements reported in patent US8138189B2, “Substituted benzene compounds as modulators of the glucocorticoid receptor” (Hoffman-La Roche Inc., priority 2009, dated 2012).

The compounds below were run against T1, full length human recombinant glucocorticoid receptor (Homo sapiens, UniProt P04150) (assay: Glucocorticoid Receptor Binding Assay (fluorescence polarization competitor assay, Fluormone GS Far Red tracer)).
T1 construct: partially purified full length human recombinant glucocorticoid receptor; purchased Panvera/Invitrogen PV4302
T1 sequence (P04150 1-777): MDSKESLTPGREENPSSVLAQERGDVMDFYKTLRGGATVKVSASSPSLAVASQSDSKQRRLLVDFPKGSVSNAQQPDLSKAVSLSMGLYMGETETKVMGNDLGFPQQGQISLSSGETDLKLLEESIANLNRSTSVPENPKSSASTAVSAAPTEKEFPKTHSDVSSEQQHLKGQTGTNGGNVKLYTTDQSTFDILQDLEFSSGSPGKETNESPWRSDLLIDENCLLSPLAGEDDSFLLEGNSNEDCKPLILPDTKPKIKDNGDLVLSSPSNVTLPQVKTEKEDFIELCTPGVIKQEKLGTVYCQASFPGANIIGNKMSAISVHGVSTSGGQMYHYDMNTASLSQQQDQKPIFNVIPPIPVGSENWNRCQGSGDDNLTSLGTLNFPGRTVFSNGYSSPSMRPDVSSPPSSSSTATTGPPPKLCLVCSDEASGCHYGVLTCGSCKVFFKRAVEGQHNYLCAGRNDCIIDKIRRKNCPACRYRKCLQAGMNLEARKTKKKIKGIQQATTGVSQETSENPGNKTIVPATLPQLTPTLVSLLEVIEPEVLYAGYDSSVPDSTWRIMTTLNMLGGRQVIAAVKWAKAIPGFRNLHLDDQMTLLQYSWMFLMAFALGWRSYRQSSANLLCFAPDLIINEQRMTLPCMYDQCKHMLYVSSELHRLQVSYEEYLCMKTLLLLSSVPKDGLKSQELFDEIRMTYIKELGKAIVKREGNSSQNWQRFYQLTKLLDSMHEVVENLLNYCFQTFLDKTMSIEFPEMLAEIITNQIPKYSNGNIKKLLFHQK
How it was run: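 Serially diluted compounds competed with the tight-binding far-red fluorescent ligand for recombinant full-length human glucocorticoid receptor plus GR-stabilizing peptide (screening buffer pH 7.4; 3 h, 22 °C, dark). Polarization (610-660 nm) gave IC50 via sigmoidal dose-response fits, and Ki was derived by Cheng-Prusoff from tracer concentration and Kd.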

Structure (SMILES) | Ki
COC(=O)c1cnc(Oc2ccc([C@H](C)[C@](O)(c3cc(C)c(=O)n(C)c3)C(F)(F)F)c(Cl)c2)cc1C(F)(F)F (relative stereo) [Example 205, 6-{3-Chloro-4-[2-(1,5-dimethyl-6-oxo-1,6-dihydro-pyridin-3-yl)-3,3,3-trifluoro-2-hydroxy-1-methyl-propyl]-phenoxy}-4-trifluoromethyl-nicotinic acid methyl ester] | 1.3 nM
COC(=O)c1cnc(OCc2ccc([C@@H](C)[C@@](O)(c3ccnc(Cl)c3)C(F)(F)F)c(Cl)c2)cn1 (stereo in doubt) [Example 120, 5-{3-Chloro-4-[2-(2-chloro-pyridin-4-yl)-3,3,3-trifluoro-2-hydroxy-1-methyl-propyl]-benzyloxy}-pyrazine-2-carboxylic acid methyl ester] | 9.7 nM
C[C@H](c1ccc(Oc2ccc(C(=O)O)cc2)cc1Cl)[C@@](O)(c1ccc(=O)n(C)c1)C(F)(F)F (stereo in doubt) [Example 152, 4-{3-Chloro-4-[3,3,3-trifluoro-2-hydroxy-1-methyl-2-(1-methyl-6-oxo-1,6-dihydro-pyridin-3-yl)-propyl]-phenoxy}-benzoic acid] | 3.3 nM
C[C@H](c1ccc(C(=O)NCc2ccc(CC(=O)O)cc2)cc1Cl)[C@@](O)(c1ccnc(Cl)c1)C(F)(F)F (stereo in doubt) [Example 43, [4-({3-Chloro-4-[2-(2-chloro-pyridin-4-yl)-3,3,3-trifluoro-2-hydroxy-1-methyl-propyl]-benzoylamino}-methyl)-phenyl]-acetic acid] | 156 nM
COc1cc(Oc2ccc(Cl)c(C(C)C(O)(c3ccnc(Cl)c3)C(F)(F)F)c2)ccc1C(=O)O (centres unmarked) [Example 131, 4-{4-Chloro-3-[2-(2-chloro-pyridin-4-yl)-3,3,3-trifluoro-2-hydroxy-1-methyl-propyl]-phenoxy}-2-methoxy-benzoic acid] | 437 nM
Cc1cc([C@@](O)([C@@H](C)c2ccc(Oc3ncc(C(=O)O)cc3Cl)cc2Cl)C(F)(F)F)cn(C)c1=O (stereo in doubt) [Example 251, 5-Chloro-6-{3-chloro-4-[2-(1,5-dimethyl-6-oxo-1,6-dihydro-pyridin-3-yl)-3,3,3-trifluoro-2-hydroxy-1-methyl-propyl]-phenoxy}-nicotinic acid] | 0.5 nM
CCOC(=O)c1cccc(-c2ccc([C@@H](C)[C@@](O)(c3ccnc(Cl)c3)C(F)(F)F)c(Cl)c2)c1 (stereo in doubt) [Example 51, 3′-Chloro-4′-[2-(2-chloro-pyridin-4-yl)-3,3,3-trifluoro-2-hydroxy-1-methyl-propyl]-biphenyl-3-carboxylic acid ethyl ester] | 150 nM

More lines, now with the values ahead:

Ki | Structure (SMILES)
4 nM | Cc1cc(C(O)(C(C)c2ccc(OCc3ccc(C(=O)O)cc3)cc2Cl)C(F)(F)F)ccn1 (centres unmarked) [Example 94, 4-{3-Chloro-4-[3,3,3-trifluoro-2-hydroxy-1-methyl-2-(2-methyl-pyridin-4-yl)-propyl]-phenoxymethyl}-benzoic acid]
34.9 nM | Cc1cc(C(O)(C(C)c2ccc(OCc3cc(C(=O)O)ccn3)cc2Cl)C(F)(F)F)ccn1 (centres unmarked) [Example 100, 2-{3-Chloro-4-[3,3,3-trifluoro-2-hydroxy-1-methyl-2-(2-methyl-pyridin-4-yl)-propyl]-phenoxymethyl}-isonicotinic acid]
1.5 nM | C[C@@H](c1ccc(OCc2ccc(C(=O)O)cc2)cc1Cl)[C@](O)(c1cnc2ccccc2c1)C(F)(F)F (stereo in doubt) [Example 141, 4-[3-Chloro-4-(3,3,3-trifluoro-2-hydroxy-1-methyl-2-quinolin-3-yl-propyl)-phenoxymethyl]-benzoic acid]
4.9 nM | Cc1cc(C(O)(C(C)c2ccc(-c3cccc(C(=O)O)c3)cc2Cl)C(F)(F)F)ccn1 (centres unmarked) [Example 61, 3′-Chloro-4′-[3,3,3-trifluoro-2-hydroxy-1-methyl-2-(2-methyl-pyridin-4-yl)-propyl]-biphenyl-3-carboxylic acid]
